This is an account of results in US20220117993A1, “Compounds Useful in HIV Therapy” (GlaxoSmithKline Intellectual Property (No. 2) Limited, priority 2018, published 2022).

Like-named read-outs stand apart in the source and are kept apart here.

Test [1] relates to wild-type NL4-3 replication defective pseudovirus (PSV). Description: microbe, parasite or virus in culture. It is filed as cell-based. Conditions: NL43, 72 h, U373 cells expressing human CD4 and CXCR4 or CCR5, luciferase signal after 3 days, mean IC50, read-out: WT IC50.
Test [2] concerns PSV with methionine 184 to valine (M184V) substitution in the reverse transcriptase gene. Kind of test: microbe, parasite or virus in culture. It is filed as cell-based, HIV. Conditions: read-out: M184V IC50.
The mark [3] stands for this setting: Human immunodeficiency virus 1, 72 h.

For `C#C[C@]1(CO)O[C@@H](n2cnc3c(N)nc(F)nc32)C[C@@H]1OC(=O)[C@H]1CC[C@H](C(C)(C)C)CC1` [Example 22, (2R,3S,5R)-5-(6-amino-2-fluoro-9H-purin-9-yl)-2-ethynyl-2-(hydroxymethyl)tetrahydrofuran-3-yl (1r,4S)-4-(tert-butyl)cyclohexane-1-carboxylate], the values for the IC50 in test [1] and in test [2] (setting [3]) were 2.6 nM and 9.3 nM, respectively.

`C#C[C@]1(CO)O[C@@H](n2cnc3c(N)nc(F)nc32)C[C@@H]1O` [EFdA, 4′-ethynyl-2-fluoro-2′-deoxyadenosine, reference compound]: the IC50 in test [1] was 6.5 nM; in test [2] (U373 cells expressing human CD4 and CXCR4 or CCR5, luciferase signal after 3 days, mean IC50), 35.1 nM.

As for `C#C[C@]1(CO)O[C@@H](n2cnc3c(NC(=O)CCCCCC)nc(F)nc32)C[C@@H]1OC(=O)CCCCCC` [Example 25, (2R,3S,5R)-2-ethynyl-5-(2-fluoro-6-heptanamido-9H-purin-9-yl)-2-(hydroxymethyl)tetrahydrofuran-3-yl heptanoate], the IC50 was 9.4 nM in test [1] and 43.9 nM in test [2] (setting [3]).

`C#C[C@]1(COC(=O)OCCCCCC)O[C@@H](n2cnc3c(N)nc(F)nc32)C[C@@H]1OC(=O)CCCCCCCCCCCCC` [Example 23, (2R,3S,5R)-5-(6-amino-2-fluoro-9H-purin-9-yl)-2-ethynyl-2-((((hexyloxy)carbonyl)oxy)methyl)tetrahydrofuran-3-yl tetradecanoate]: the IC50 in test [1] worked out at 1090 nM; in test [2] (setting [3]) it was 1130 nM.

As to `C#C[C@]1(CO)O[C@@H](n2cnc3c(NC(=O)CCC)nc(F)nc32)C[C@@H]1OC(=O)CCC` [Example 26, (2R,3S,5R)-5-(6-butyramido-2-fluoro-9H-purin-9-yl)-2-ethynyl-2-(hydroxymethyl)tetrahydrofuran-3-yl butyrate], the results for the IC50 in test [1] and in test [2] (setting [3]) were 102 nM and 465 nM, respectively.

With `C#C[C@]1(CO)O[C@@H](n2cnc3c(N)nc(F)nc32)C[C@@H]1OC(=O)CCCCCC` [Example 4, (2R,3S,5R)-5-(6-amino-2-fluoro-9H-purin-9-yl)-2-ethynyl-2-(hydroxymethyl)tetrahydrofuran-3-yl heptanoate], the IC50 in test [1] worked out at 4.1 nM; in test [2] (setting [3]), 24 nM.

As to `C#C[C@]1(CO)O[C@@H](n2cnc3c(N)nc(F)nc32)C[C@@H]1OC(=O)CCCCCCCCC` [Example 3, (2R,3S,5R)-5-(6-amino-2-fluoro-9H-purin-9-yl)-2-ethynyl-2-(hydroxymethyl)tetrahydrofuran-3-yl decanoate], the IC50 was 1.3 nM in test [1] and 7 nM in test [2] (setting [3]).

In the case of `C#C[C@]1(CO)O[C@@H](n2cnc3c(N)nc(F)nc32)C[C@@H]1OC(=O)C(C)(C)C` [Example 13, (2R,3S,5R)-5-(6-amino-2-fluoro-9H-purin-9-yl)-2-ethynyl-2-(hydroxymethyl)tetrahydrofuran-3-yl pivalate], the IC50 was determined as 262 nM in test [1] and 1280 nM in test [2] (setting [3]).

Consider `C#C[C@]1(CO)O[C@@H](n2cnc3c(N)nc(F)nc32)C[C@@H]1OC(=O)C(CCCCCC)CCCCCCCC` (stereo partly drawn) [Example 15, (2R,3S,5R)-5-(6-amino-2-fluoro-9H-purin-9-yl)-2-ethynyl-2-(hydroxymethyl)tetrahydrofuran-3-yl 2-hexyldecanoate], for which the IC50 in test [1] worked out at 555 nM; in test [2] (setting [3]), 3120 nM.

Regarding `C#C[C@]1(CO)O[C@@H](n2cnc3c(NC(=O)CCCCCCCCCCCCC)nc(F)nc32)C[C@@H]1OC(C)=O` [Example 14, (2R,3S,5R)-2-ethynyl-5-(2-fluoro-6-tetradecanamido-9H-purin-9-yl)-2-(hydroxymethyl)tetrahydrofuran-3-yl acetate], the figures for the IC50 in test [1] and in test [2] (setting [3]) were 11.4 nM and 68 nM, respectively.

Take `C#C[C@]1(CO)O[C@@H](n2cnc3c(N)nc(F)nc32)C[C@@H]1OC(=O)C(C)CCCCC` (stereo partly drawn) [Example 11, (2R,3S,5R)-5-(6-amino-2-fluoro-9H-purin-9-yl)-2-ethynyl-2-(hydroxymethyl)tetrahydrofuran-3-yl 2-methylheptanoate]: the IC50 is 2.9 nM in test [1] and 17 nM in test [2] (setting [3]).

As for `C#C[C@]1(CO)O[C@@H](n2cnc3c(N)nc(F)nc32)C[C@@H]1OC(=O)CCC` [Example 20, (2R,3S,5R)-5-(6-amino-2-fluoro-9H-purin-9-yl)-2-ethynyl-2-(hydroxymethyl)tetrahydrofuran-3-yl butyrate], the IC50 in test [1] worked out at 27.7 nM; in test [2] (setting [3]), 124 nM.

As to `C#C[C@]1(COC(=O)OCC)O[C@@H](n2cnc3c(N)nc(F)nc32)C[C@@H]1OC(=O)CCCCCCCCC` [Example 9, (2R,3S,5R)-5-(6-amino-2-fluoro-9H-purin-9-yl)-2-(((ethoxycarbonyl)oxy)methyl)-2-ethynyltetrahydrofuran-3-yl decanoate], the figures for the IC50 in test [1] and in test [2] (setting [3]) were 11.4 nM and 53 nM, respectively.

Turning to `C#C[C@]1(CO)O[C@@H](n2cnc3c(N)nc(F)nc32)C[C@@H]1OC(C)=O` [Example 1, (2R,3S,5R)-5-(6-amino-2-fluoro-9H-purin-9-yl)-2-ethynyl-2-(hydroxymethyl)tetrahydrofuran-3-yl acetate], the IC50 in test [1] was 106 nM; in test [2] (setting [3]), 538 nM.

With `C#C[C@]1(CO)O[C@@H](n2cnc3c(N)nc(F)nc32)C[C@@H]1OC(=O)C(CCCC)CCCCCC` (stereo partly drawn) [Example 17, (2R,3S,5R)-5-(6-amino-2-fluoro-9H-purin-9-yl)-2-ethynyl-2-(hydroxymethyl)tetrahydrofuran-3-yl 2-butyloctanoate], the IC50 in test [1] was found to be 145 nM; in test [2] (setting [3]), 598 nM.

Consider `C#C[C@]1(CO)O[C@@H](n2cnc3c(NC(=O)CCCCCCCCC)nc(F)nc32)C[C@@H]1OC(=O)CCCCCCCCC` [Example 27, (2R,3S,5R)-5-(6-decanamido-2-fluoro-9H-purin-9-yl)-2-ethynyl-2-(hydroxymethyl)tetrahydrofuran-3-yl decanoate], for which the IC50 was 6.8 nM in test [1] and 28.6 nM in test [2] (setting [3]).

Turning to `C#C[C@]1(CO)O[C@@H](n2cnc3c(N)nc(F)nc32)C[C@@H]1OC(=O)C1CCCCC1` [Example 16, (2R,3S,5R)-5-(6-amino-2-fluoro-9H-purin-9-yl)-2-ethynyl-2-(hydroxymethyl)tetrahydrofuran-3-yl cyclohexanecarboxylate], the IC50 in test [1] was 3.9 nM; in test [2] (setting [3]), 19 nM.

On to `C#C[C@]1(CO)O[C@@H](n2cnc3c(NC(=O)CCCCCCCCCCCCC)nc(F)nc32)C[C@@H]1OC(=O)CC(C)(C)c1c(C)cc(C)cc1OC(C)=O` [Example 28, (2R,3S,5R)-2-ethynyl-5-(2-fluoro-6-tetradecanamido-9H-purin-9-yl)-2-(hydroxymethyl)tetrahydrofuran-3-yl 3-(2-acetoxy-4,6-dimethylphenyl)-3-methylbutanoate], for which the IC50 turned out to be 41.5 nM in test [1] and 153 nM in test [2] (setting [3]).

Consider `C#C[C@]1(CO)O[C@@H](n2cnc3c(N)nc(F)nc32)C[C@@H]1OC(=O)CCCCCCCCCCCCCCCCCCC` [Example 6, (2R,3S,5R)-5-(6-amino-2-fluoro-9H-purin-9-yl)-2-ethynyl-2-(hydroxymethyl)tetrahydrofuran-3-yl icosanoate], for which the IC50 in test [1] amounted to 635 nM; in test [2] (setting [3]), 3280 nM.

As for `C#C[C@]1(CO)O[C@@H](n2cnc3c(N)nc(F)nc32)C[C@@H]1OC(=O)C(C)(C)CCC` [Example 18, (2R,3S,5R)-5-(6-amino-2-fluoro-9H-purin-9-yl)-2-ethynyl-2-(hydroxymethyl)tetrahydrofuran-3-yl 2,2-dimethylpentanoate], the IC50 stood at 46.4 nM in test [1] and 168 nM in test [2] (setting [3]).

For the compound `C#C[C@]1(COC(=O)OCC)O[C@@H](n2cnc3c(N)nc(F)nc32)C[C@@H]1OC(=O)CCCCCCCCCCCCCCCCC` [Example 24, (2R,3S,5R)-5-(6-amino-2-fluoro-9H-purin-9-yl)-2-(((ethoxycarbonyl)oxy)methyl)-2-ethynyltetrahydrofuran-3-yl stearate], the IC50 is 1270 nM in test [1] and 2120 nM in test [2] (setting [3]).

As for `C#C[C@]1(CO)O[C@@H](n2cnc3c(N)nc(F)nc32)C[C@@H]1OC(=O)c1ccccc1` [Example 19, (2R,3S,5R)-5-(6-amino-2-fluoro-9H-purin-9-yl)-2-ethynyl-2-(hydroxymethyl)tetrahydrofuran-3-yl benzoate], the IC50 came to 40.8 nM in test [1] and 197 nM in test [2] (setting [3]).

With `C#C[C@]1(CO)O[C@@H](n2cnc3c(N)nc(F)nc32)C[C@@H]1OC(=O)CCCCCCC/C=C\C/C=C\C/C=C\CC` [Example 7, (9Z,12Z,15Z)-(2R,3S,5R)-5-(6-amino-2-fluoro-9H-purin-9-yl)-2-ethynyl-2-(hydroxymethyl)tetrahydrofuran-3-yl octadeca-9,12,15-trienoate], the IC50 in test [1] worked out at 7.1 nM; in test [2] (setting [3]), 36.4 nM.

For the compound `C#C[C@]1(CO)O[C@@H](n2cnc3c(N)nc(F)nc32)C[C@@H]1OC(=O)[C@H]1CC[C@H](CCCCC)CC1` [Example 12, (2R,3S,5R)-5-(6-amino-2-fluoro-9H-purin-9-yl)-2-ethynyl-2-(hydroxymethyl)tetrahydrofuran-3-yl (1s,4S)-4-pentylcyclohexane-1-carboxylate], the values for the IC50 in test [1] and in test [2] (setting [3]) were 1.8 nM and 10.7 nM, respectively.

In the case of `C#C[C@]1(CO)O[C@@H](n2cnc3c(N)nc(F)nc32)C[C@@H]1OC(=O)C(CCC)CCC` [Example 5, (2R,3S,5R)-5-(6-amino-2-fluoro-9H-purin-9-yl)-2-ethynyl-2-(hydroxymethyl)tetrahydrofuran-3-yl 2-propylpentanoate], the IC50 was found to be 35.5 nM in test [1] and 168 nM in test [2] (setting [3]).

In the case of `C#C[C@]1(CO)O[C@@H](n2cnc3c(N)nc(F)nc32)C[C@@H]1OC(=O)Cc1ccccc1` [Example 10, (2R,3S,5R)-5-(6-amino-2-fluoro-9H-purin-9-yl)-2-ethynyl-2-(hydroxymethyl)tetrahydrofuran-3-yl 2-phenylacetate], the 50% inhibitory concentration (IC50) in test [1] stood at 7.2 nM; in test [2] (setting [3]), 26.2 nM.
